{
  "source": "patent US8809352B2",
  "about": "“Sulfonamides as inhibitors of Bcl-2 family proteins for the treatments of cancer” (Novartis AG, priority 2009, dated 2014)",
  "data": [
    {"target": "BCL2 (Homo sapiens, UniProt P10415)", "sequence (P10415 whole entry)": "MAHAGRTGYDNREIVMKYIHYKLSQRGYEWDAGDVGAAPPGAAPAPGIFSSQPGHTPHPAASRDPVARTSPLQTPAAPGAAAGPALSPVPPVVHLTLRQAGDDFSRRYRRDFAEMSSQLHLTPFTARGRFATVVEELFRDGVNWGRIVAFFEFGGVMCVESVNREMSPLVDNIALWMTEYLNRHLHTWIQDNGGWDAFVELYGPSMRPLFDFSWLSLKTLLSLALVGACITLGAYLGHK", "test": "Biacore SPR solution inhibition assay of BCL-2 binding to peptide derivatized sensor surfaces", "settings": "SPR competition; 56 nM BCL2 pre-equilibrated with compound one hour; biotinylated BAK, BAD and NOXA peptide surfaces; 25° C.", "text": "The present method includes utility of a Surface plasmon resonance (SPR)-based biosensor (Biacore™ GE Healthcare, Uppsala, Sweden) to characterize BCL-2 inhibitors.\nBiacore™ utilizes the phenomenon of surface plasmon resonance (SPR) to detect and measure binding interactions. In a typical Biacore experiment, one of the interacting molecules (ligand) is immobilized on a flexible dextran matrix while the interacting partner (analyte) is allowed to flow across that surface. A binding interaction results in an increase in mass on the sensor surface and a corresponding direct change in the refractive index of the medium in the vicinity of the sensor surface. Changes in refractive index or signal are recorded in resonance units (R.U.) Signal changes due to association and dissociation of complexes are monitored in a non-invasive manner, continuously and in real-time, the results of which are reported in the form of a sensorgram. The SPR assay is configured to examine solution inhibition of BCL-2 binding to peptide derivatized sensor surfaces to generate […] values as a measure of inhibitor potency.\nBiacore™ A100 (GE Healthcare, Uppsala, Sweden) was used to conduct all experiments reported herein. Sensor surface preparation and all interaction analyses experiments were performed at 25° C. Reagents were purchased from GE Healthcare. Running buffer containing 10 mM Hepes, pH7.4, 150 mM sodium chloride, 1.25 mM Dithiothreitol, 3% Dimethyl sulfoxide and 0.05% polysorbate 20 were utilized throughout all analyses.\nBiotinylated BAK, BAD and NOXA peptides were diluted to 10 nM in running buffer and captured onto a sensor surface pre-derivatized with streptavidin (sensor chip SA) to peptide surface densities in the range 50-100 R.U. Peptide captured surfaces were blocked with 500 μM PEO2-Biotin.\nInteraction analyses were performed by first equilibrating each sample within a 6 point three fold compound dilution series in the range 16 μM to 0.004 nM with 56 nM BCL2 for one hour during instrument start-up procedures. Protein compound mixtures were then injected over each peptide surface in parallel for 60 seconds at a flow-rate of 30 μL/min. 56 nM BCL2 control samples were also prepared and run at regular intervals during the assay. Surface regeneration was performed at the end of each analysis cycle by two 30 second injections of 10 mM Glycine, pH 2.5, 1M Sodium Chloride, 0.05% polysorbate 20. Samples and control compound samples were run in duplicate and controls are also run at regular intervals during the assay to monitor surface and assay performance.\nData analyses are carried out using Biacore™ A100 evaluation software v1.1 to validate assay quality. Binding level report points were used relative to BCL2 control samples to calculate % inhibition values for each compound protein mixture.", "units": {"IC50": "nM"}, "values": [
      {"smiles": "CN(C)CC[C@H](CSc1ccccc1)Nc1ccc(S(=O)(=O)Nc2ncnc3c2CCN(C2CCN(Cc4ccccc4-c4ccc(Cl)cc4)CC2)C3)cc1C(F)(F)F", "note": "[Example 53]", "IC50": 66},
      {"smiles": "COC1(Cc2ccccc2-c2ccc(Cl)cc2)CCC(N2CCc3c(ncnc3NS(=O)(=O)c3ccc(N[C@H](CCN(C)C)CSc4ccccc4)c(S(=O)(=O)C(F)(F)F)c3)C2)CC1", "note": "(mixture of isomers) [Example 60, (R)-N-(7-(4-((4′-chlorobiphenyl-2-yl)methyl)-4-methoxycyclohexyl)-5,6,7,8-tetrahydropyrido[3,4-d]pyrimidin-4-yl)-4-(4-(dimethylamino)-1-(phenylthio)butan-2-ylamino)-3-(trifluoromethylsulfonyl)benzenesulfonamide]", "IC50": 63},
      {"smiles": "CN(C)CC[C@H](CSc1ccccc1)Nc1ccc(S(=O)(=O)Nc2ncnc3c2CCN(C2CCN(Cc4cc(F)ccc4-c4ccc(Cl)cc4)CC2)C3)cc1S(=O)(=O)C(F)(F)F", "note": "[Example 20]", "IC50": 22},
      {"smiles": "CN(C)CC[C@H](CSc1ccccc1)Nc1c(F)cc(S(=O)(=O)Nc2ncnc3c2CCN(C2CCN(Cc4ccccc4-c4ccc(Cl)cc4)CC2)C3)cc1F", "note": "[Example 12, (R)-N-(7-(1-((4′-chlorobiphenyl-2-yl)methyl)piperidin-4-yl)-5,6,7,8-tetrahydropyrido[3,4-d]pyrimidin-4-yl)-4-(4-(dimethylamino)-1-(phenylthio)butan-2-ylamino)-3,5-difluorobenzenesulfonamide]", "IC50": 3060},
      {"smiles": "[2H]C1(N2CCc3c(ncnc3NS(=O)(=O)c3ccc(N[C@H](CCN4CCN(C)CC4)CSc4ccccc4F)c(S(=O)(=O)C(F)(F)F)c3)C2)CCN(CC2=C(c3ccc(Cl)cc3)CC(C)(C)CC2)CC1", "note": "[Example 83]", "IC50": 28},
      {"smiles": "C[C@H]1CC(N2CCc3c(ncnc3NS(=O)(=O)c3ccc(N[C@H](CCN(C)C)CSc4ccccc4)c(S(=O)(=O)C(F)(F)F)c3)C2)CCN1Cc1ccccc1-c1ccc(Cl)cc1", "note": "(mixture of isomers) [Example 4, N-(7-((2S)-1-((4′-chlorobiphenyl-2-yl)methyl)-2-methylpiperidin-4-yl)-5,6,7,8-tetrahydropyrido[3,4-d]pyrimidin-4-yl)-4-((R)-4-(dimethylamino)-1-(phenylthio)butan-2-ylamino)-3-(trifluoromethylsulfonyl)benzenesulfonamide]", "IC50": 22},
      {"smiles": "CC1(C)CCC(c2ccc(Cl)cc2)=C(CN2CCC(N3CCc4c(ncnc4NS(=O)(=O)c4ccc(N[C@H](CCN5CCOCC5)CSc5ccccc5)c(S(=O)(=O)C(F)(F)F)c4)C3)CC2)C1", "note": "[Example 8]", "IC50": 76},
      {"smiles": "C[C@H]1CC(N2CCc3c(ncnc3NS(=O)(=O)c3ccc(N[C@H](CCN(C)C)CSc4ccccc4)c([N+](=O)[O-])c3)C2)CCN1Cc1ccccc1-c1ccc(Cl)cc1", "note": "(mixture of isomers) [Example 3]", "IC50": 62},
      {"smiles": "CN(C)CC[C@H](CSc1ccccc1)Nc1ccc(S(=O)(=O)Nc2ncnc3c2CCN(C2CCN(Cc4ccccc4-c4cccc(Cl)c4)CC2)C3)cc1S(=O)(=O)C(F)(F)F", "note": "[Example 97, N-{7-[1-(3′-Chloro-biphenyl-2-ylmethyl)-piperidin-4-yl]-5,6,7,8-tetrahydro-pyrido[3,4-d]pyrimidin-4-yl}-4-((R)-3-dimethylamino-1-phenylsulfanylmethyl-propylamino)-3-trifluoromethanesulfonyl-benzenesulfonamide]", "IC50": 49},
      {"smiles": "CN(C)CC[C@H](CSc1cccc(Cl)c1)Nc1ccc(S(=O)(=O)Nc2ncnc3c2CCN(C2CCN(Cc4ccccc4-c4ccc(Cl)cc4)CC2)C3)cc1S(=O)(=O)C(F)(F)F", "note": "[Example 26, N-{7-[1-(4′-Chloro-biphenyl-2-ylmethyl)-piperidin-4-yl]-5,6,7,8-tetrahydro-pyrido[3,4-c]pyrimidin-4-yl}-4-[(R)-1-(3-chloro-phenylsulfanylmethyl)-3-dimethylamino-propylamino]-3-trifluoromethanesulfonyl-benzenesulfonamide]", "IC50": 48},
      {"smiles": "CC(c1cc(F)ccc1-c1ccc(Cl)cc1)N1CCC(N2CCc3c(ncnc3NS(=O)(=O)c3ccc(N[C@H](CCN4CCOCC4)CSc4ccccc4)c(S(=O)(=O)C(F)(F)F)c3)C2)CC1", "note": "(stereo partly drawn) [Example 31, N-(7-(1-(1-(4′-chloro-4-fluorobiphenyl-2-yl)ethyl)piperidin-4-yl)-5,6,7,8-tetrahydropyrido[3,4-d]pyrimidin-4-yl)-4-((R)-4-morpholino-1-(phenylthio)butan-2-ylamino)-3-(trifluoromethylsulfonyl)benzenesulfonamide]", "IC50": 84},
      {"smiles": "[2H]C1(N2CCc3c(ncnc3NS(=O)(=O)c3ccc(N[C@H](CCN4CCCC4)CSc4ccccc4)c(S(=O)(=O)C(F)(F)F)c3)C2)CCN(CC2=C(c3ccc(Cl)cc3)CC(C)(C)CC2)CC1", "note": "[Example 85, (R)-N-(7-(1-((2-(4-chlorophenyl)-4,4-dimethylcyclohex-1-enyl)methyl)-4-deuteropiperidin-4-yl)-5,6,7,8-tetrahydropyrido[3,4-d]pyrimidin-4-yl)-4-(1-(phenylthio)-4-(pyrrolidin-1-yl)butan-2-ylamino)-3-(trifluoromethylsulfonyl)benzenesulfonamide]", "IC50": 30},
      {"smiles": "CC(c1ccccc1-c1ccc(Cl)cc1)N1CCC(N2CCc3c(nc(C(F)(F)F)nc3NS(=O)(=O)c3ccc(N[C@H](CCN(C)C)CSc4ccccc4Cl)c(S(=O)(=O)C(F)(F)F)c3)C2)CC1", "note": "(stereo partly drawn) [Example 34, N-(7-(1-(1-(4′-chlorobiphenyl-2-yl)ethyl)piperidin-4-yl)-2-(trifluoromethyl)-5,6,7,8-tetrahydropyrido[3,4-d]pyrimidin-4-yl)-4-((R)-1-(2-chlorophenylthio)-4-(dimethylamino)butan-2-ylamino)-3-(trifluoromethylsulfonyl)benzenesulfonamide]", "IC50": 99},
      {"smiles": "O=S(=O)(Nc1ncnc2c1CCN(C1CCN(Cc3ccccc3-c3ccc(Cl)cc3)CC1)C2)c1ccc(N[C@H](CCN2CCOCC2)CSc2ccccc2)c(S(=O)(=O)C(F)(F)F)c1", "note": "[Example 9, (R)-N-(7-(1((4′-chlorobiphenyl-2-yl)methyl)piperidin-4-yl)-5,6,7,8-tetrahydropyrido[3,4-d]pyrimidin-4-yl)-4-(4-morpholino-1-(phenylthio)butan-2-ylamino)-3-(trifluoromethylsulfonyl)benzenesulfonamide]", "IC50": 144},
      {"smiles": "[2H]C1(N2CCc3c(nc(C(F)(F)F)nc3NS(=O)(=O)c3ccc(N[C@H](CCN4CCN(C)CC4)CSc4ccccc4F)c(S(=O)(=O)C(F)(F)F)c3)C2)CCN([C@@H](C)c2ccccc2-c2ccc(Cl)cc2)CC1", "note": "[Example 74]", "IC50": 41},
      {"smiles": "CN(C)CC[C@H](CSc1ccccc1Cl)Nc1ccc(S(=O)(=O)Nc2ncnc3c2CCN(C2CCN(CC4=C(c5ccc(Cl)cc5)CC(C)(C)CC4)CC2)C3)cc1S(=O)(=O)C(F)(F)F", "note": "[Example 28, (R)-N-(7-(1((2-(4-chlorophenyl)-4,4-dimethylcyclohex-1-enyl)methyl)piperidin-4-yl)-5,6,7,8-tetrahydropyrido[3,4-d]pyrimidin-4-yl)-4-(1-(2-chlorophenylthio)-4-(dimethylamino)butan-2-ylamino)-3-(trifluoromethylsulfonyl)benzenesulfonamide]", "IC50": 44},
      {"smiles": "CN(C)CC[C@H](CSc1ccccc1)Nc1ccc(S(=O)(=O)Nc2ncnc3c2CCN(C2CCC(=Cc4ccccc4)CC2)C3)cc1S(=O)(=O)C(F)(F)F", "note": "(stereo partly shown) [Example 63]", "IC50": 1180},
      {"smiles": "CN(C)CC[C@H](CSc1ccccc1)Nc1ccc(S(=O)(=O)Nc2ncnc3c2CCN(C2CCN(Cc4ccccc4-c4ccc(Cl)cc4)CC2)C3)cc1[N+](=O)[O-]", "note": "[Example 1, N-{7-[1-(4′-Chloro-biphenyl-2-ylmethyl)-piperidin-4-yl]-5,6,7,8-tetrahydro-pyrido[3,4-d]pyrimidin-4-yl}-4-((R)-3-dimethylamino-1-phenylsulfanylmethyl-propylamino)-3-nitro-benzenesulfonamide]", "IC50": 100},
      {"smiles": "CN(C)CC[C@H](CSc1ccccc1Cl)Nc1ccc(S(=O)(=O)Nc2nc(C(F)(F)F)nc3c2CCN(C2CCN(CC4=C(c5ccc(Cl)cc5)CC(C)(C)CC4)CC2)C3)cc1S(=O)(=O)C(F)(F)F", "note": "[Example 32, (R)-N-(7-(1-((2-(4-chlorophenyl)-4,4-dimethylcyclohex-1-enyl)methyl)piperidin-4-yl)-2-(trifluoromethyl)-5,6,7,8-tetrahydropyrido[3,4-d]pyrimidin-4-yl)-4-(1-(2-chlorophenylthio)-4-(dimethylamino)butan-2-ylamino)-3-(trifluoromethylsulfonyl)benzenesulfonamide]", "IC50": 87}
    ]}
  ]
}
